From article PMC3880013, “Toward an Understanding of Agonist Binding to Human Orexin-1 and Orexin-2 Receptors with G-Protein-Coupled Receptor Modeling and Site-Directed Mutagenesis” (Biochemistry, 2013)
Marks after values point to notes of the source that are not given here.

What was measured:
Assay in all cases: Calcium flux assay, CHO-K1 cells stably expressing Orexin receptor mutant
Assay type in all cases: cell-based, human
hOX2 F227W = hOX2 F227W (5.42) relative to wild type, CHO-K1, Fluo-4AM, this work
Description: (§1) A combination of overlap and mismatch polymerase chain reaction (PCR) was used to introduce mutations into the corresponding Orexin-1 and Orexin-2 cDNAs as described by us previously.[62] Each mutation was made via the generation of two overlapping PCR fragments with PfuUltra II Fusion HS DNA Polymerase (Strategene). The two products were extracted, and a second round of PCR was performed via combination of both fragments with 5′ and 3′ gene specific primers (containing BamHI and NotI restriction sites, respectively). The resulting gel-purified products were then cloned into expression vector pFB-Neo for subsequent generation of stable cell lines. Constructs were confirmed via sequencing. Each verified cDNA was subsequently used to generate single, stably expressing clones in the CHO-K1 cell line.
(§2) Standard calcium flux assays were used to assess the functionality of each OX receptor mutant. Each CHO-K1 Orexin mutant was seeded into tissue culture-treated, 384-well, black clear-bottom plates (CellBind Corning 7086), at a density of 7500 cells/well in culture medium and maintained in an incubator (5% CO2 at 37 °C) overnight. The cell medium was removed, and the cells were incubated in 20 μL of assay buffer (4 μM Fluo-4AM in HBSS with 0.1% BSA) for 90 min at 37 °C. After incubation, the dye was removed and 45 μL of fresh buffer, without dye, was applied. Antagonists (5 μL) were applied, and after incubation for an additional 20 min at 37 °C, 20 μL of receptor specific agonists was applied and the calcium flux monitored using a Flex Station (Molecular Devices) over a period of 1 min. In all cases, the EC80 specific for the individual mutant as determined in previous experiments was reported.

hOX1 Q179A = hOX1 Q179A (4.60) vs wild type, CHO-K1, Fluo-4AM, this work
Description: as §1, §2

hOX1 Y311F = hOX1 Y311F (6.48) relative to wild type, CHO-K1, Fluo-4AM, this work
Description: as §1, §2

hOX2 Q187A = hOX2 Q187A (4.60) relative to wild type, CHO-K1, Fluo-4AM, this work
Description: as §1, §2

hOX2 Q134A = hOX2 Q134A (3.32) relative to wild type, CHO-K1, Fluo-4AM, this work
Description: as §1, §2

## Orexin-B
hOX2 F227W
  ratio EC50(mut)/EC50(WT): 75.0 ^d fold
hOX1 Q179A
  fold improvement in potency relative to wild type: 72.2 fold improvement
hOX1 Y311F
  ratio EC50(mut)/EC50(WT): 0.85 ^d fold
hOX2 Q187A
  ratio EC50(mut)/EC50(WT): 1.7 ^d fold
hOX2 Q134A
  ratio EC50(mut)/EC50(WT): 5.1 ^d fold
